This experiment relates to human MSCs carrying pLenti6 TK RANTES (HSV tk under RANTES promoter). As to the kind of experiment: Specific cell death of induced genetically modified MSCs after ganciclovir treatment. Conditions: 9 days TNFα (10 ng/ml) and IFNγ (10 ng/ml), then 3 days 100 μM ganciclovir. The class given is cell-based. On the procedure: Human MSCs were incubated over night with replication deficient lentiviruses carrying the vector pLenti6 TK RANTES harboring the HSV tk gene under the control of the RANTES promoter and the blasticidin resistance gene under the control of the SV40 promoter (multiplicity of infection (MOI): 10) (see FIG. 8).
After overnight incubation the virus containing media was removed and replaced with fresh media. The next day blasticidin (6 μg/ml) was added to the cells to select for genetically modified MSCs. Culture media, including blasticidin was changed every 3 to 4 days for a minimum of 6 days.
Genetically modified cells (50000 cells in per 6 well) that were generated as described above were treated for 9 days with TNFα (10 ng/ml) and IFNγ (10 ng/ml) with addition of fresh cytokines every 3 days. Subsequently the cells were incubated for 3 days with 100 μM ganciclovir.

This is an account of results in US9434925B2, “Genetically modified mesenchymal stem cell that express an exogenous cytotoxic protein” (APCETH GMBH & CO. KG, priority 2009, dated 2016).

As for `Nc1nc(O)c2ncn(COC(CO)CO)c2n1` [ganciclovir], the “survival of genetically modified MSCs” value is “not surviving”.
